This passage reports EC50 results from patent publication US8796256B2 (Janssen Pharmaceutica NV, priority 2010, dated 2014).

Each structure is given as a SMILES string.

For the assay, the target named is T1, ERR1 (also known as ERR-α or ERR-1) (Homo sapiens, UniProt P11474).
T1 sequence (P11474 193-421 limits assumed): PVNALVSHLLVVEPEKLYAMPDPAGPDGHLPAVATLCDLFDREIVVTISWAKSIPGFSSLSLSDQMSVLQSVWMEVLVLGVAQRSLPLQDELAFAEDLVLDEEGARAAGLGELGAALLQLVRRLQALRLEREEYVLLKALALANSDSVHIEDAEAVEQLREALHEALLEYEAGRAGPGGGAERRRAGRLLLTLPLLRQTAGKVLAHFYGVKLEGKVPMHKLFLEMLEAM
The assay can be described thus: TR-FRET assay (disruption of co-activator peptide binding to ERR1 LBD). Type of assay: biochemical. The following applies: 6 nM 6His-ERR1LBD, 6 nM GST-SRC-2 peptide; average of 3 independent experiments. A digest of the protocol:
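Homogeneous TR-FRET measuring displacement of GST-hSRC2 co-activator peptide (6 nM) from His-tagged ERR1 LBD (6 nM), detected with α-GST Eu cryptate (30 nM) and α-His-XL665 (7.5 nM). Buffer 25 mM Tris pH 8, 2.5 mM Hepes, 20 mM KCl, 1 mM DTT, 0.05 mg/mL delipidated BSA; equilibration 4-18 h at 25° C. Hyperbolic dose-response fit, mean of 3 experiments.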
(In general: In TR-FRET formats the signal depends on donor and acceptor labels being close together.)
For the compound `COC(=O)[C@@H]1C[C@@H](N2C(=O)S/C(=C\c3ccc4c(cnn4Cc4ccc(Cl)cc4C(F)(F)F)c3)C2=O)CN1` [Compound 180, Methyl (4R)-4-[(5Z)-5-({1-[4-chloro-2-(trifluoromethyl)benzyl]-1H-indazol-5-yl}methylidene)-2,4-dioxo-1,3-thiazolidin-3-yl]-L-prolinate], the EC50 was 32 nM. For the compound `O=C1S/C(=C\c2ccc3c(cnn3Cc3ccc(Cl)cc3C(F)(F)F)c2)C(=O)N1Cc1nccn1Cc1ncc[nH]1` [Compound 404, (5Z)-5-({1-[4-Chloro-2-(trifluoromethyl)benzyl]-1H-indazol-5-yl}methylidene)-3-{[1-(1H-imidazol-2-ylmethyl)-1H-imidazol-2-yl]methyl}-1,3-thiazolidine-2,4-dione], the EC50 stood at 21 nM. Compound `O=C1S/C(=C\c2ccc3c(cnn3Cc3ccc(Cl)cc3C(F)(F)F)c2)C(=O)N1[C@@H]1CNC[C@H]1F` (relative stereo) [Compound 317, (5Z)-5-({1-[4-Chloro-2-(trifluoromethyl)benzyl]-1H-indazol-5-yl}methylidene)-3-[trans-4-fluoropyrrolidin-3-yl]-1,3-thiazolidine-2,4-dione] came in with an EC50 of 12 nM. Turning to `O=C1S/C(=C\c2ccc3c(cnn3Cc3ccc(Cl)cc3C(F)(F)F)c2)C(=O)N1[C@H]1CCNC[C@H]1F` (relative stereo) [Compound 201, (5Z)-5-({1-[4-Chloro-2-(trifluoromethyl)benzyl]-1H-indazol-5-yl}methylidene)-3-(cis-3-fluoropiperidin-4-yl)-1,3-thiazolidine-2,4-dione], a half-maximal effect (EC50) was put at 61 nM. Next, `CC(C)C[C@@H](N)CN1C(=O)S/C(=C\c2ccc3c(cnn3Cc3ccc(Cl)cc3C(F)(F)F)c2)C1=O` [Compound 54, (5Z)-3-[(2R)-2-Amino-4-methylpentyl]-5-({1-[4-chloro-2-(trifluoromethyl)benzyl]-1H-indazol-5-yl}methylidene)-1,3-thiazolidine-2,4-dione]: 37 nM; `COC(=O)CN1C(=O)S/C(=C\c2ccc3c(cnn3[C@H]3CCc4cc(Cl)ccc43)c2)C1=O` [Compound 171, Methyl [(5Z)-5-({1-[(1S)-5-chloro-2,3-dihydro-1H-inden-1-yl]-1H-indazol-5-yl}methylidene)-2,4-dioxo-1,3-thiazolidin-3-yl]acetate]: 29 nM. Regarding `O=C(NN1C(=O)S/C(=C\c2ccc3c(cnn3Cc3ccc(Cl)cc3C(F)(F)F)c2)C1=O)C1CC1` [Compound 373, N-[(5Z)-5-({1-[4-Chloro-2-(trifluoromethyl)benzyl]-1H-indazol-5-yl}methylidene)-2,4-dioxo-1,3-thiazolidin-3-yl]cyclopropanecarboxamide], the EC50 came out at 7 nM. As to `CC(C)[C@H](N)CN1C(=O)S/C(=C\c2ccc3c(cnn3Cc3ccc(Cl)cc3C(F)(F)F)c2)C1=O` [Compound 162, (5Z)-3-[(2S)-2-Amino-3-methylbutyl]-5-({1-[4-chloro-2-(trifluoromethyl)benzyl]-1H-indazol-5-yl}methylidene)-1,3-thiazolidine-2,4-dione], the EC50 is 32 nM.

`CCN1CCC(N2C(=O)S/C(=C\c3ccc4c(cnn4Cc4ccc(Cl)cc4C(F)(F)F)c3)C2=O)CC1` [Compound 118, (5Z)-5-({1-[4-Chloro-2-(trifluoromethyl)benzyl]-1H-indazol-5-yl}methylidene)-3-(1-ethylpiperidin-4-yl)-1,3-thiazolidine-2,4-dione] showed an EC50 of 25 nM. With `O=C1S/C(=C\c2ccc3c(cnn3Cc3ccc(C(F)(F)F)cc3C(F)(F)F)c2)C(=O)N1[C@@H]1CCNC[C@H]1F` (relative stereo) [Compound 274, (5Z)-5-({1-[2,4-Bis(trifluoromethyl)benzyl]-1H-indazol-5-yl}methylidene)-3-(trans-3-fluoropiperidin-4-yl)-1,3-thiazolidine-2,4-dione], it took 88 nM to reach a half-maximal effect (EC50). In turn, `[2H]C([2H])([2H])N1CC[C@@H](N2C(=O)S/C(=C\c3ccc4c(cnn4Cc4ccc(C(F)(F)F)cc4C(F)(F)F)c3)C2=O)[C@H](F)C1` (relative stereo) [Compound 330, (5Z)-5-({1-[2,4-Bis(trifluoromethyl)benzyl]-1H-indazol-5-yl}methylidene)-3-[trans-3-fluoro-1-(1,1,1-d3)-methylpiperidin-4-yl]-1,3-thiazolidine-2,4-dione] registered a concentration giving a half-maximal response (EC50) of 91 nM.

In turn, `NC1(CN2C(=O)S/C(=C\c3ccc4c(cnn4Cc4ccc(Cl)cc4C(F)(F)F)c3)C2=O)CCC1` [Compound 314, (5Z)-3-[(1-Aminocyclobutyl)methyl]-5-({1-[4-chloro-2-(trifluoromethyl)benzyl]-1H-indazol-5-yl}methylidene)-1,3-thiazolidine-2,4-dione] came in with an EC50 of 830 nM. Consider `O=C1S/C(=C\c2ccc3c(cnn3[C@@H]3CCc4cc(Cl)ccc43)c2)C(=O)N1CCN1CCCC1` [Compound 178, (5Z)-5-({1-[(1R)-5-Chloro-2,3-dihydro-1H-inden-1-yl]-1H-indazol-5-yl}methylidene)-3-(2-pyrrolidin-1-ylethyl)-1,3-thiazolidine-2,4-dione], for which it took 9700 nM to reach a half-maximal effect (EC50).

`N#Cc1ccc(Cn2ncc3cc(/C=C4\SC(=O)N(CC(=O)O)C4=O)ccc32)c(C(F)(F)F)c1` [Compound 346, [(5Z)-5-({1-[4-Cyano-2-(trifluoromethyl)benzyl]-1H-indazol-5-yl}methylidene)-2,4-dioxo-1,3-thiazolidin-3-yl]acetic acid]: the EC50 turned out to be 579 nM.

In the case of `NS(=O)(=O)CN1C(=O)S/C(=C\c2ccc3c(cnn3Cc3ccc(F)cc3C(F)(F)F)c2)C1=O` [Compound 61, 1-[(5Z)-5-({1-[4-Fluoro-2-(trifluoromethyl)benzyl]-1H-indazol-5-yl}methylidene)-2,4-dioxo-1,3-thiazolidin-3-yl]methanesulfonamide], the EC50 is 269 nM. With `CN1CCN(CCCN2C(=O)S/C(=C\c3ccc4c(ccn4Cc4ccc(Cl)cc4C(F)(F)F)c3)C2=O)CC1` [Compound 245, (5Z)-5-[(1-{[4-Chloro-2-(trifluoromethyl)phenyl]methyl}-1H-indol-5-yl)methylidene]-3-[3-(4-methylpiperazin-1-yl)propyl]-1,3-thiazolidine-2,4-dione], a half-maximal response (EC50) required 50 nM. Then `O=C1CNCCC1N1C(=O)S/C(=C\c2ccc3c(cnn3Cc3ccc(Cl)cc3C(F)(F)F)c2)C1=O` (stereo not shown) [Compound 341, (5Z)-5-({1-[4-Chloro-2-(trifluoromethyl)benzyl]-1H-indazol-5-yl}methylidene)-3-(3-oxopiperidin-4-yl)-1,3-thiazolidine-2,4-dione], with 39 nM; and `CCOC(=O)C1CCC(N2C(=O)S/C(=C\c3ccc4c(c3)nnn4Cc3ccc(Cl)cc3C(F)(F)F)C2=O)CC1` (stereo not shown) [Compound 261, Ethyl 4-[(5Z)-5-({1-[4-chloro-2-(trifluoromethyl)benzyl]-1H-benzotriazol-5-yl}methylidene)-2,4-dioxo-1,3-thiazolidin-3-yl]cyclohexanecarboxylate], with 124 nM; and `O=C1S/C(=C\c2ccc3c(cnn3Cc3ccc(Cl)cc3C(F)(F)F)c2)C(=O)N1CCN1CCC(F)(F)C1` [Compound 116, (5Z)-5-({1-[4-Chloro-2-(trifluoromethyl)benzyl]-1H-indazol-5-yl}methylidene)-3-[2-(3,3-difluoropyrrolidin-1-yl)ethyl]-1,3-thiazolidine-2,4-dione], with 180 nM. `NC(=O)CN1CCC[C@H]1CN1C(=O)S/C(=C\c2ccc3c(cnn3Cc3ccc(Cl)cc3C(F)(F)F)c2)C1=O` [Compound 297, 2-[(2S)-2-{[(5Z)-5-({1-[4-Chloro-2-(trifluoromethyl)benzyl]-1H-indazol-5-yl}methylidene)-2,4-dioxo-1,3-thiazolidin-3-yl]methyl}pyrrolidin-1-yl]acetamide] displayed an EC50 of 76 nM. Consider `N#Cc1nn(Cc2ccc(Cl)cc2C(F)(F)F)c2ccc(/C=C3\SC(=O)N(CC(=O)O)C3=O)cc12` [Compound 416, [(5Z)-5-({1-[4-Chloro-2-(trifluoromethyl)benzyl]-3-cyano-1H-indazol-5-yl}methylidene)-2,4-dioxo-1,3-thiazolidin-3-yl]acetic acid], for which a half-maximal response (EC50) required 35 nM.

Compound `O=C(O)CN1C(=O)S/C(=C\c2ccc3c(c2)c(F)nn3Cc2ccc(Cl)cc2C(F)(F)F)C1=O` [Compound 406, [(5Z)-5-({1-[4-Chloro-2-(trifluoromethyl)benzyl]-3-fluoro-1H-indazol-5-yl}methylidene)-2,4-dioxo-1,3-thiazolidin-3-yl]acetic acid] returned an EC50 of 13 nM. For `CN(CCN1C(=O)S/C(=C\c2ccc3c(cnn3Cc3ccc(Cl)cc3C(F)(F)F)c2)C1=O)S(C)(=O)=O` [Compound 397, N-{2-[(5Z)-5-({1-[4-Chloro-2-(trifluoromethyl)benzyl]-1H-indazol-5-yl}methylidene)-2,4-dioxo-1,3-thiazolidin-3-yl]ethyl}-N-methylmethanesulfonamide], the EC50 was found to be 23 nM.

`CS(=O)(=O)NN1C(=O)S/C(=C\c2ccc3c(cnn3Cc3ccc(C#N)cc3C(F)(F)F)c2)C1=O` [Compound 362, N-[(5Z)-5-({1-[4-Cyano-2-(trifluoromethyl)benzyl]-1H-indazol-5-yl}methylidene)-2,4-dioxo-1,3-thiazolidin-3-yl]methanesulfonamide] displayed an EC50 of 308 nM.

Regarding `CC(C)C[C@H](N)CN1C(=O)S/C(=C\c2ccc3c(cnn3Cc3ccc(Cl)cc3C(F)(F)F)c2)C1=O` [Compound 53, (5Z)-3-[(2S)-2-Amino-4-methylpentyl]-5-({1-[4-chloro-2-(trifluoromethyl)benzyl]-1H-indazol-5-yl}methylidene)-1,3-thiazolidine-2,4-dione], the EC50 came out at 39 nM.

By EC50 is commonly meant the concentration that produces a half-maximal response.
